From ChEMBL document CHEMBL1126385, “-alkoxyphenol leukotriene B4 receptor antagonists” (Bioorg Med Chem Lett, 1992)

Test system: Cavia porcellus
Experiment: Effective dose for inhibition of gas trapping in vivo in a guinea pig model of LTB4-induced airway obstruction
Format: functional

CCOc1cc(CC)c(OCCCCCC(C)(C)c2nn[n-]n2)cc1O.[Na+]
ED50: 0.3 mg/kg
